From patent US10835493B2, “Platelet-like proteo-microparticles and method of using such in drug delivery” (Academia Sinica, priority 2015, dated 2020) come the findings set out here.

In one series the test system is HO-1 expression in SVECs. Description: CoPP-induced HO-1 expression in SVECs (western blotting). The format is cell-based, murine. The following applies: 4 hours exposure then overnight, compared to β-actin. As to the method:
(§1) FIGS. 10A-10C show in vitro analysis of CoPP-induced expression of HO-1. FIG. 10A is a schematic diagram showing the relationship between CoPP, HO-1 and bilirubin. […] The cells were then placed back in a 37° C. incubator overnight before subjecting to western blotting (FIG. 10B). FIG. 10C presents the specific activity of the induced HO-1 in every treated sample, in catalyzing heme into bilirubin (n=6). NT; not treated, CoPP; free CoPP, Lipo+CoPP; liposome-encapsulated CoPP, PLP+CoPP; PLP-encapsulated CoPP. *, P<0.05, ***, P<0.001.
(§2) Samples were separated on 4-12% SDS-polyacrylamide gels (BioRad, US). After transfer to PVDF membrane, primary and secondary antibodies were applied, and the signals were detected with ECL-plus reagent. Primary antibodies against human GPIIb (GTX113758), human CD42c (GTX113355) and β-actin (GTX109639) were purchased from GeneTex (US). The anti-human CD62P (sc-19672) were from Santa Cruz (US). The rabbit polyclonal anti-HO-1 antibodies were made in-house according to Lin et al. ((2013), Arterioscler Thromb Vase Biol 33:785-794).
(§3) The capability of PLP−CoPP to induce HO-1 expression was first investigated in SVECs, RAW264.7 cells and MΦ (FIG. 10B). […] In addition, the enzyme activity of HO-1 in each corresponded to the expression level of enzyme in each of the CoPP-treated samples.
A general note: Immunoblotting shows a protein as a band on a membrane.

Series [1] deals with HO-1 expression in RAW264.7 cells. Kind of series: CoPP-induced HO-1 expression in RAW264.7 cells (western blotting). In kind it is cell-based, murine. The following applies: 4 hours exposure then overnight. As to the method: as §1, §2, §3
The subject of the next series is I/R injured hearts. Description: PCR of HO-1 and pro-inflammatory genes in I/R injured hearts. The format is in vivo, mouse. The following applies: i.v. at 72 hours of reperfusion. From the text:
(§4) FIGS. 6A-6D show therapeutic analysis of PLP−CoPP in a murine model of myocardial I/R injury. […] Subsequent injections were made every 5 days until day 28, at which point the mice were sacrificed. Subsequently, the heart tissues of the mice were sectioned and stained with Masson's trichrome (FIG. 6B). NT; not treated, CoPP; free CoPP, Lipo+CoPP; liposome-encapsulated CoPP, PLP+CoPP; PLP-encapsulated CoPP. Scale bar; 1 mm for the whole section and 100 μm for the higher magnified images.
Total RNA was isolated from a whole heart using TRI Reagent (1 mL/whole heart). Subsequently, 1 μg of RNA was transcribed info cDNA using a random primer mixer (ProtoScript M-MuLV First Strand cDNA synthesis kit, New England BioLabs) and amplified during 35 cycles by PCR, utilizing specific primers (Table 1). The reactants were cycled at 95° C. for 1 min, 58° C. for 1 min, and 72° C. for 1.5 min to enable denaturation, annealing, and extension, respectively. PCR products were then separated on 1% (w/v) agarose gel at 60 V for 1 hour in TBE buffer (80 mM Tris base, 80 mM boric acid, and 2 mM EDTA, pH 8). The gels were stained with Health View Nucleic Acid Stain (Genomics, Taipei, Taiwan) for 30 minutes and then visualized under UV light.

Another series has as its system murine model of MI. Kind of series: Blood chemistry (serum) analysis in murine model of MI. The format is in vivo, mouse. The following applies: end of 28-day treatment. As to the method:
(§5) FIGS. 7A-7D show echocardiographic assessments of cardiac function and blood chemistry analysis of a murine model of MI injury after PLP−CoPP treatments. […] Treatments were then given every 5 days until day 28, at which point the cardiac function of the mice was assessed by echocardiography (n=8) (FIG. 7B); LVEF, left ventricular ejection fraction; FS, fraction shortening; LVEDV, left ventricular end-diastolic volume; LVESV, left ventricular end-systolic volume; IVSd, interventricular septal thickness at diastole; IVSs, interventricular septal thickness at systole. The blood of the mice was analyzed for biomarkers to assess liver function (FIG. 7C), renal function (FIG. 7D), and cardiac function (FIG. 7E); AST, aspartate aminotransferase; ALT, alanine aminotransferase; TBIL, total bilirubin; BUN, blood urea nitrogen; CRE, creatinine; CKMB, creatine kinase MB, *, P<0.05, ***, P<0.001.
All blood tests were performed by independent staff at the Taiwan Mouse Clinic, Academia Sinica, Taiwan. Male, BALB/c mice, approximately 56 weeks old, were used for all analyses (n=5 per group).
Levels of aspartate transaminase (AST), alanine transaminase (ALT), and total bilirubin in the serum were the biomarkers used to evaluate the hepatotoxicity of CoPP (FIG. 7C). […] Similar results were also seen in the measured serum level of blood urine nitrogen (BUN) and creatinine (CRE), which are biomarkers for renal toxicity (FIG. 7D).

The test system of series [2] is murine model of non-reperfused MI. Kind of series: Echocardiographic assessment of cardiac function in murine model of MI. In kind it is in vivo, mouse. The following applies: 28 days post MI. Here is the method: as §5, with “P<0.001. […]” for “P<0.001.”
The cardiac function in murine models of both I/R and MI was assessed by using a 30-MHz probe (Vevo770; Visual Sonics, Toronto, ON, Canada), following the methods published in Chen et al. ((2015), Stem Cells Trans Med 4:269-275). […] The left ventricular end-diastolic diameter (LVEDD) and end-systolic diameter (LVESD) were measured perpendicular to the long axis of the ventricle at the location of the papillary muscle insertion site. […]

In series [3] the test system is murine model of I/R injury. Description: Infarct area in murine model of myocardial I/R injury (histology). In kind it is in vivo, mouse. The following applies: 5 mg/Kg i.v. at 72 hours of reperfusion then every 5 days; vs I/R+saline.
From the text: as §4
Surgery for myocardial ischemia-reperfusion (I/R) was performed according to the protocol published in Ojha et al. ((2008), Am J Physiol Heart Circ Physiol 294:H2435-H2443). Briefly, the mice were ventilated on room air-isoflurane at an appropriate rate and tidal volume. The heart was accessed via left thoracotomy, in which the left lung was retracted to allow entrance to the pericardium. Subsequently, the left atrium was elevated to expose the left anterior descending coronary artery (LAD), and was isolated using a 7-0 silk suture on a taper needle. The suture was tightened over a piece of polyethylene-10 tubing to provide for reversible ischemia via the occlusion of the coronary artery. Ischemia was allowed to continue for 45 minutes after occlusion. After 45 minutes, the suture was released to allow for reperfusion of the injured myocardium. […]

With `C=CC1=C(C)c2cc3[n-]c(cc4nc(cc5[n-]c(cc1n2)c(C)c5CCC(=O)[O-])C(CCC(=O)[O-])=C4C)c(C)c3C=C.[Co+2].[H+].[H+]` [CoPP, cobalt protoporphyrin], in the series with HO-1 expression in SVECs, the HO-1 expression entry was “induction of some expression”. In series [1], the HO-1 expression result is “induced strong HO-1 expression”. Also, the “pro-inflammatory genes TNFα, MCP-1, IL6 and IL1β in the hearts” value in the series with I/R injured hearts is “downregulated”. In addition, in the series on I/R injured hearts (vs saline and Lipo−CoPP), the “expression of the HO-1 gene (HMXO1) in the hearts” value is “upregulated”. Besides, in the series on murine model of MI, the “serum ALT” value is “significantly higher level”; the “serum BUN and CRE” value is on record as “significantly higher than the other treatment groups”; the “serum CKMB” value is given as “significantly lower CKMB levels”. Also, the “left ventricular ejection fraction (LVEF, %)” value in series [2] (5 mg/Kg i.v. from 3 days post-infarction every 5 days) is “No significant difference”. The “LVEDV and LVESV” value in series [2] was “significantly better than the other treatment groups”. Also, the “infarct area of the heart” value in series [3] is listed as “significant reduction”.
